Data on 22 molecules can be found in patent publication US6828317B2, “Antimicrobial thiadiazinone derivatives and their application for treatment of bacterial infections” (Pharmacia & Upjohn Company, priority 2002, dated 2004).

Molecules are shown by their SMILES. Converted amounts (≈) assume the structure as drawn.

The test system of one data set is H. influenzae 30063. The data set can be described thus: MIC by agar dilution, H. influenzae 30063. Conditions: Haemophilus influenzae, Mueller Hinton agar, overnight at 35° C. Format: cell-based. An excerpt: (§1) The in vitro activity of compounds of the subject invention may be assessed by standard testing procedures such as the determination of minimum inhibitory concentration (MIC) by agar dilution as described in “Approved Standard. Methods for Dilution Antimicrobial Susceptibility Tests for Bacteria that Grow Aerobically,” 3rd ed., published 1993 by the National Committee for Clinical Laboratory standards, Villanova, Pa., USA. The in vitro MICs of test compounds may be determined by a standard agar dilution method. A stock drug solution of each analog is prepared in a preferred solvent, usually DMSO:H2O (1:3). Serial 2-fold dilutions of each sample are made using 1.0 ml aliquots of sterile distilled water. To each 1.0 ml aliquot of drug is added 9 ml of molten Mueller Hinton agar medium. The drug-supplemented agar is mixed, poured into 15×100 mm petri dishes, and allowed to solidify and dry prior to inoculation. Vials of each of the test microorganisms are maintained frozen in the vapor phase of a liquid nitrogen freezer. Test cultures are grown overnight at 35° C. on the medium appropriate for the microorganism. Colonies are harvested with a sterile swab, and cell suspensions are prepared in Trypticase Soy broth (TSB) to equal the turbidity of a 0.5 McFarland standard. A 1:20 dilution of each suspension is made in TSB. The plates containing the drug supplemented agar are inoculated with a 0.001 ml drop of the cell suspension using a Steers replicator, yielding approximately 10^4 to 10^5 cells per spot. The plates are incubated overnight at 35° C. Following incubation the Minimum Inhibitory Concentration (MIC μg/ml), the lowest concentration of drug that inhibits visible growth of the microorganism, is read and recorded.

In a further data set the test system is S. aureus UC9213. The data set can be described thus: MIC by agar dilution, S. aureus UC9213. To be noted: Staphylococcus aureus, Mueller Hinton agar, overnight at 35° C. Format: cell-based.
From the text: as §1
Background: In agar dilution, organisms are placed on agar that contains the substance at set levels.

The test system of another data set is S. pneumoniae UC9912. Description: MIC by agar dilution, S. pneumoniae UC9912. To be noted: Streptococcus pneumoniae, Mueller Hinton agar, overnight at 35° C. Format: cell-based.
From the text: as §1

Turning to `CCC(=O)NC[C@H]1CN(c2ccc(C3=NNC(=O)CS3)c(F)c2)C(=O)O1` [Example 15, N-{3-[3-Fluoro-4-(5-oxo-5,6-dihydro-4H-[1,3,4]thiadiazin-2-yl)-phenyl]-2-oxo-oxazolidin-5(S)-ylmethyl}-propionamide], the melting point (usually the temperature, or range, at which the solid turns liquid) lay within 192 to 193 °C. The molecule also showed an MIC with H. influenzae 30063 of 2 µg/mL (≈ 5.26 µM). In the data set on S. aureus UC9213, this molecule came in with an MIC of 1 µg/mL (≈ 2.63 µM). Further, the MIC against S. pneumoniae UC9912 was < 0.06 µg/mL.
The like results for `CC(=O)CC(=O)NC[C@H]1CN(c2ccc(C3=NNC(=O)CS3)c(F)c2)C(=O)O1` [Example 21, N-{3-[3-Fluoro-4-(5-oxo-5,6-dihydro-4H-[1,3,4]thiadiazin-2-yl)-phenyl]-2-oxo-oxazolidin-5(S)-ylmethyl}-3-oxo-butyramide] were, in that order, 176 to 178 °C, 8 µg/mL (≈ 19.6 µM), 4 µg/mL (≈ 9.79 µM) and 0.5 µg/mL (≈ 1.22 µM).
Take `CC(C)(C)OC(=O)NC[C@H]1CN(c2ccc(C3=NNC(=S)CS3)c(F)c2)C(=O)O1` [Example 28, N-{3-[3-Fluoro-4-(5-thioxo-5,6-dihydro-4H-[1,3,4]thiadiazin-2-yl)-phenyl]-2-oxo-oxazolidin-5(S)-ylmethyl}-carbamic acid tert-butyl ester]: the melting point was 134 to 136 °C.
In the case of `CC(=O)NC[C@H]1CN(c2ccc(C3=NNC(=O)[C@@H](C)S3)c(F)c2)C(=O)O1` [Example 3, N-{3-[3-Fluoro-4-(6(R)-methyl-5-oxo-5,6-dihydro-4H-[1,3,4]thiadiazin-2-yl)-phenyl]-2-oxo-oxazolidin-5(S)-ylmethyl}-acetamide], the melting point was in the range of 205 to 206 °C. The MIC with H. influenzae 30063 was determined as 4 µg/mL (≈ 10.5 µM). Besides, in the data set on S. aureus UC9213, the MIC stood at 1 µg/mL (≈ 2.63 µM). The same molecule registered an MIC in the data set on S. pneumoniae UC9912 of 0.25 µg/mL (≈ 0.657 µM).
The like results for `CCC1SC(c2ccc(N3C[C@H](CNC(C)=O)OC3=O)cc2F)=NNC1=O` (stereo partly drawn) [Example 5, N-{3-[3-Fluoro-4-(6-ethyl-5-oxo-5,6-dihydro-4H-[1,3,4]thiadiazin-2-yl)-phenyl]-2-oxo-oxazolidin-5(S)-ylmethyl}-acetamide] were, in that order, 177 to 179 °C, 32 µg/mL (≈ 81.1 µM), 4 µg/mL (≈ 10.1 µM) and 2 µg/mL (≈ 5.07 µM).
Turning to `COC(=O)CN1N=C(c2ccc(N3C[C@H](CNC(C)=O)OC3=O)cc2F)SCC1=O` [Example 33], the melting point was 157 to 158 °C.
`CC(=O)NC[C@H]1CN(c2ccc(C3=NNC(=O)[C@H](C)S3)c(F)c2)C(=O)O1` [Example 2, N-{3-[3-Fluoro-4-(6(S)-methyl-5-oxo-5,6-dihydro-4H-[1,3,4]thiadiazin-2-yl)-phenyl]-2-oxo-oxazolidin-5(S)-ylmethyl}-acetamide] returned a melting point of 200 to 202 °C. For the same molecule, the MIC against H. influenzae 30063 worked out at 4 µg/mL (≈ 10.5 µM). Further, the MIC in the data set with S. aureus UC9213 turned out to be 1 µg/mL (≈ 2.63 µM). For the same molecule, in the data set on S. pneumoniae UC9912, the MIC is 0.25 µg/mL (≈ 0.657 µM).
The like results for `CC(C)(C)OC(=O)NC[C@H]1CN(c2ccc(C3=NNC(=O)CS3)c(F)c2)C(=O)O1` [Example 20, N-{3-[3-Fluoro-4-(5-oxo-5,6-dihydro-4H-[1,3,4]thiadiazin-2-yl)-phenyl]-2-oxo-oxazolidin-5(S)-ylmethyl}-carbamic acid tert-butyl ester] were, in that order, 167 to 168 °C, 64 µg/mL (≈ 151 µM), 2 µg/mL (≈ 4.71 µM) and 2 µg/mL (≈ 4.71 µM).
For `CC(=O)NC[C@H]1CN(c2ccc(C3=NNC(=O)C4(CCC4)S3)c(F)c2)C(=O)O1` [Example 8, N-{3-[3-Fluoro-4-(9-oxo-5-thia-7,8-diazaspiro[3.5]non-6-en-6-yl)-phenyl]-2-oxo-oxazolidin-5(S)-ylmethyl}-acetamide], the melting point fell in the range of 214 to 215 °C. The MIC with H. influenzae 30063 is 32 µg/mL (≈ 78.7 µM). Besides, in the data set on S. aureus UC9213, the MIC was 2 µg/mL (≈ 4.92 µM). Moreover, the MIC against S. pneumoniae UC9912 stood at 0.5 µg/mL (≈ 1.23 µM).
Consider `CO/N=C/c1ccc(/C=C/C(=O)NC[C@H]2CN(c3ccc(C4=NNC(=O)CS4)c(F)c3)C(=O)O2)cc1` [Example 24, N-{3-[3-Fluoro-4-(5-oxo-5,6-dihydro-4H-[1,3,4]thiadiazin-2-yl)-phenyl]-2-oxo-oxazolidin-5(S)-ylmethyl}-3-[4-(methoxyimino-methyl)-phenyl]-acrylamide], for which the MIC is > 64 µg/mL against H. influenzae 30063, 1 µg/mL (≈ 1.95 µM) with S. aureus UC9213 and 0.06 µg/mL (≈ 0.117 µM) with S. pneumoniae UC9912.
Regarding `O=C(CO)NC[C@H]1CN(c2ccc(C3=NNC(=O)CS3)c(F)c2)C(=O)O1` [Example 17, N-{3-[3-Fluoro-4-(5-oxo-5,6-dihydro-4H-[1,3,4]thiadiazin-2-yl)-phenyl]-2-oxo-oxazolidin-5(S)-ylmethyl}-2-hydroxyacetamide], the melting point is 157 to 158 °C. In addition, in the data set with H. influenzae 30063, the MIC was 4 µg/mL (≈ 10.5 µM). Also, the MIC against S. aureus UC9213 turned out to be 2 µg/mL (≈ 5.23 µM). The molecule also gave an MIC in the data set on S. pneumoniae UC9912 of 0.125 µg/mL (≈ 0.327 µM).
The like results for `CC(=O)NC[C@H]1CN(c2ccc(C3=NNC(=O)C(C)(C)S3)c(F)c2)C(=O)O1` [Example 4, N-{3-[4-(6,6-Dimethyl-5-oxo-5,6-dihydro-4H-[1,3,4]thiadiazin-2-yl)-3-fluorophenyl]-2-oxo-oxazolidin-5(S)-ylmethyl}-acetamide] were, in that order, 179 to 181 °C, 16 µg/mL (≈ 40.6 µM), 2 µg/mL (≈ 5.07 µM) and 0.25 µg/mL (≈ 0.634 µM).
The like results for `NC(=O)NC[C@H]1CN(c2ccc(C3=NNC(=O)CS3)c(F)c2)C(=O)O1` [Example 18, {3-[3-Fluoro-4-(5-oxo-5,6-dihydro-4H-[1,3,4]thiadiazin-2-yl)-phenyl]-2-oxo-oxazolidin-5(S)-ylmethyl}-urea] were, in that order, 235 to 236 °C, 4 µg/mL (≈ 10.9 µM), 2 µg/mL (≈ 5.44 µM) and 0.125 µg/mL (≈ 0.34 µM).
For `O=C1CSC(c2ccc(N3C[C@H](CNC(=O)C4CC4)OC3=O)cc2F)=NN1` [Example 16, Cyclopropanecarboxylic acid {3-[3-fluoro-4-(5-oxo-5,6-dihydro-4H-[1,3,4]thiadiazin-2-yl)-phenyl]-2-oxo-oxazolidin-5(S)-ylmethyl}-amide], in that order: 239 to 240 °C, 2 µg/mL (≈ 5.1 µM), 2 µg/mL (≈ 5.1 µM) and 0.125 µg/mL (≈ 0.319 µM).
Take `CC(=O)NC[C@H]1CN(c2ccc(C3=NNC(=O)C(c4ccccc4)S3)c(F)c2)C(=O)O1` (stereo partly drawn) [Example 9, N-{3-[3-Fluoro-4-(5-oxo-6-phenyl-5,6-dihydro-4H-[1,3,4]thiadiazin-2-yl)-phenyl]-2-oxo-oxazolidin-5(S)-ylmethyl}-acetamide]: the melting point was 122 to 123 °C. The MIC in the data set on H. influenzae 30063 was 16 µg/mL (≈ 36.2 µM). Further, in the data set on S. aureus UC9213, the MIC was determined as 4 µg/mL (≈ 9.04 µM). Further, the MIC in the data set on S. pneumoniae UC9912 is 0.5 µg/mL (≈ 1.13 µM).
The like results for `O=C1CSC(c2ccc(N3C[C@H](CO)OC3=O)cc2F)=NN1` [Example 34] were, in that order, 224 to 227 °C, 1 µg/mL (≈ 3.07 µM), 0.125 µg/mL (≈ 0.384 µM) and 0.25 µg/mL (≈ 0.768 µM).
On to `CC(=O)NC[C@H]1CN(c2ccc(C3=NNC(=O)C(OC(C)=O)S3)c(F)c2)C(=O)O1` (stereo partly drawn) [Example 31, Acetic acid 2-{4-[5(S)-(acetylaminomethyl)-2-oxo-oxazolidin-3-yl]-2-fluorophenyl}-5-oxo-5,6-dihydro-4H-[1,3,4]thiadiazin-6-yl ester], for which the melting point lay in the range of 174 to 177 °C.
For `COC(=O)NC[C@H]1CN(c2ccc(C3=NNC(=O)CS3)c(F)c2)C(=O)O1` [Example 19], the MIC in the data set on H. influenzae 30063 was 4 µg/mL (≈ 10.5 µM); against S. aureus UC9213, 1 µg/mL (≈ 2.62 µM); with S. pneumoniae UC9912 it was 0.125 µg/mL (≈ 0.327 µM).
Molecule `O=C(CC(=O)c1ccc(F)cc1)NC[C@H]1CN(c2ccc(C3=NNC(=O)CS3)c(F)c2)C(=O)O1` [Example 22, N-{3-[3-Fluoro-4-(5-oxo-5,6-dihydro-4H-[1,3,4]thiadiazin-2-yl)-phenyl]-2-oxo-oxazolidin-5(S)-ylmethyl}-3-(4-fluorophenyl)-3-oxo-propionamide] showed a melting point of 184 to 187 °C. In the data set on H. influenzae 30063, this molecule returned an MIC of 16 µg/mL (≈ 32.8 µM). In addition, the MIC in the data set with S. aureus UC9213 came to 4 µg/mL (≈ 8.19 µM). The same molecule had an MIC in the data set with S. pneumoniae UC9912 of 1 µg/mL (≈ 2.05 µM).
For `CC(=S)NC[C@H]1CN(c2ccc(C3=NNC(=O)CS3)c(F)c2)C(=O)O1` [Example 25, N-{3-[3-Fluoro-4-(5-oxo-5,6-dihydro-4H-[1,3,4]thiadiazin-2-yl)-phenyl]-2-oxo-oxazolidin-5(S)-ylmethyl}-thioacetamide], in that order: 182 to 183 °C, 0.5 µg/mL (≈ 1.31 µM), 0.125 µg/mL (≈ 0.327 µM) and < 0.06 µg/mL.
As to `CC(=O)NC[C@H]1CN(c2ccc(C3=NNC(=O)C(F)S3)c(F)c2)C(=O)O1` (stereo partly drawn) [Example 10, N-{3-[3-Fluoro-4-(6-fluoro-5-oxo-5,6-dihydro-4H-[1,3,4]thiadiazin-2-yl)-phenyl]-2-oxo-oxazolidin-5(S)-ylmethyl}-acetamide], the melting point lay in the range of 218 to 220 °C.
The molecule `CC(=O)NC[C@H]1CN(c2ccc(C3=NNC(=O)C(C(C)C)S3)c(F)c2)C(=O)O1` (stereo partly drawn) [Example 7, N-{3-[3-Fluoro-4-(6-isopropyl-5-oxo-5,6-dihydro-4H-[1,3,4]thiadiazin-2-yl)-phenyl]-2-oxo-oxazolidin-5(S)-ylmethyl}-acetamide] gave a melting point of 201 to 203 °C.
